Columns and labels:
[1] = tested on: Raw 264.7 (ATCC TIB71) cells; experiment: Evaluation of cell survival rate of macrophages (MTT); assay type: cell-based, mouse; details: Raw 264.7, 10 μM, 24 hours
Procedure: Raw 264.7 (ATCC TIB71) cells, the mouse derived macrophages', were inoculated in a 96-well plate containing DMEM (Dulbecco's modified Eagle medium; Welgene, Korea) supplemented with 10% FBS (Fetal Bovine Serum), 2 mM glutamine, penicillin (100 unit/ml), and streptomycin (100 μg/ml) at the density of 1×10^4 cells/well. The cells were cultured in 5% CO2 at 37° C. for 4 hours to attach the cells onto the plate. Next, the cells were treated with each sample at different concentrations, followed by further culture for 24 hours. To investigate the cell survival rate, 5 mg/ml of MTT (3-(4,5-dimethylthiazol-2-yl)-2,5-diphenyltetrazoliumbromide, Amresco, OH, USA) was distributed thereto (10 μl/well), followed by culture for 4 hours. Then, the supernatant was eliminated. Formazan reduced from MTT by mitochondria was dissolved in 100 μl of DMSO and then OD570 was measured. 0.2% DMSO was used for the negative control.

[2] = tested on: inflammatory cells (eosinophils); experiment: Number of inflammatory cells in bronchoalveolar lavage fluid (Diff-Quick); assay type: in vivo, mouse; details: OVA asthma Balb/c mice, 5 or 15 mg/kg PO, FIG. 5
Procedure: (§1) 6 week old Balb/c female mice in the average weight of 20 g were adapted for 1 week. 2 mg of aluminum hydroxide (A8222, Sigma, St. Louis, Mo.) and 20 μg of ovalbumin (A5503, sigma, St. Louis, Mo.) were suspended in phosphate buffer (pH 7.4). Each mouse was administered with 200 μl of the phosphate buffer suspension via intraperitoneal injection for sensitization at 2 weeks intervals. The mouse was forced to inhale 1% ovalbumin (OVA) through ultrasonic atomizer for 30 minutes a day for 3 days after the first intraperitoneal injection of ovalbumin. 24 hours after the antigen administration, airway hyperreactivity was measured. 48 hours later, a lethal dose of pentobarbital (Entobar, Hanlim Pharma. Co., Ltd.) was administered to the mouse. The bronchus was opened and the alveoli were washed with 1.4 ml of saline. Then, the test samples were obtained. The normal control (NC) was not administered with ovalbumin nor inhaled. The asthma induced group (OVA) was administered with ovalbumin and inhaled to induce bronchial asthma. The comparative control was orally administered with dexamethasone (2 mg/kg, PO) one hour before the inhalation (DEX). […]
After performing the experiment of Experimental Example <3-1> above, the number of inflammatory cells in bronchoalveolar lavage fluid was measured by Diff-Quick staining.

serum IgE = experiment: Level of serum IgE in asthma mice; assay type: in vivo, mouse; details: OVA asthma Balb/c mice, 5 or 15 mg/kg PO, FIG. 4
Procedure: as §1
After performing the experiment of Experimental Example <3-1> above, the level of serum IgE relating to the severity of asthma was measured by enzyme immunoassay. […] Then, OD650 was measured.

[3] = tested on: bronchial asthma induced animal model; experiment: Airway hyperreactivity (Penh) in ovalbumin-induced bronchial asthma mice; assay type: in vivo, mouse; details: OVA asthma Balb/c mice, 5 or 15 mg/kg PO, FIG. 1
Procedure: as §1, with “inhaled.” for “inhaled. The asthma induced group (OVA) was administered with ovalbumin and inhaled to induce bronchial asthma. The comparative control was orally administered with dexamethasone (2 mg/kg, PO) one hour before the inhalation (DEX).”
After performing the experiment of Experimental Example <3-1> above, airway resistance was measured by using one chamber plethysmography (All Medicus, Seoul) to obtain Penh (enhanced pause) values which were the mathematically calculated numbers reflecting airway obstruction in order to measure airway hyperreactivity. To measure Penh value, basal value in normal breathing status was first measured. […]

[4] = tested on: Nitrogen Oxide (NO) generation; experiment: Inhibition of nitrogen oxide (NO) generation in LPS-treated Raw 264.7 cells (Griess); assay type: cell-based, mouse; details: Raw 264.7, LPS 500 ng/ml, 24 hours
Procedure: Raw 264.7 (ATCC TIB71) cells were inoculated in a 96-well plate containing the same medium as used in Experimental Example 1 at the density of 1×10^5 cells/well. The cells were cultured in 5% CO2 at 37° C. for 4 hours to attach the cells onto the plate. The cells were treated with each sample at different concentrations, followed by further culture for 1 hour. […] were treated thereto at the final concentration of 500 ng/ml, followed by further culture for 24 hours. 100 μl of the supernatant was taken and transferred in a new plate, which was mixed with Griess reagent (a mixture of 1% sulfanilamide, 0.1% N-[1-naphthyl]-ethylenediamine dihydrochloride, and 5% phosphoric acid), followed by reaction for 10 minutes. Then, OD540 was measured. NO generation was quantified by using the sodium nitrite standard curve prepared from […] dissolved in the same medium at different concentrations. Considering the NO generation of the inflammation induced macrophages as 100%, the NO generation inhibition rate was calculated and presented in Table 7.

COc1cc(CCCO)cc2cc(-c3ccc(C)cc3)oc12 [Example 4, 3-(7-methoxy-2-p-tolylbenzofuran-5-yl)propane-1-ol]
Grades of cell survival rate (%, in 10 μM) [1]: A (A: 90<A≤100) | infiltration of inflammatory cells (eosinophils) in bronchoalveolar lavage fluid [2]: efficiently reduce | generation of serum IgE induced by OVA (serum IgE): efficiently reduced | Penh value (airway hyperreactivity) [3]: significantly reduced | Grades of NO generation inhibition rate (%) [4]: B (B: 25<B≤35)

From US10053443B2, “2-phenylbenzofuran derivatives, method for preparing the same and use of the same for treating inflammatory disease” (KOREA RESEARCH INSTITUTE OF BIOSCIENCE AND BIOTECHNOLOGY, priority 2014, dated 2018)
